Assays:
Assay type in all cases: functional
SW-620 = experiment: Growth inhibition of human SW620 cells assessed as cell growth at 10^-6 M incubated for 48 hrs by sulforhodamine B assay relative to control; conditions: SW-620, 48 h, read-out: Activity
NCI-H226 = experiment: Growth inhibition of human NCI-H226 cells assessed as cell growth at 10^-5 M incubated for 48 hrs by sulforhodamine B assay relative to control; conditions: NCI-H226, 48 h, read-out: Activity
SNB-19 = experiment: Growth inhibition of human SNB19 cells assessed as cell growth at 10^-7 M incubated for 48 hrs by sulforhodamine B assay relative to control; conditions: SNB-19, 48 h, read-out: Activity
OVCAR-8 [1] = experiment: Growth inhibition of human OVCAR8 cells assessed as cell growth at 10^-7 M incubated for 48 hrs by sulforhodamine B assay relative to control; conditions: OVCAR-8, 48 h, read-out: Activity
CAKI-1 [2] = experiment: Growth inhibition of human Caki1 cells assessed as cell growth at 10^-8 M incubated for 48 hrs by sulforhodamine B assay relative to control; conditions: CAKI-1, 48 h, read-out: Activity
MDA-MB-231 = experiment: Growth inhibition of human MDA-MB-231 cells assessed as cell growth at 10^-4 M incubated for 48 hrs by sulforhodamine B assay relative to control; conditions: MDA-MB-231, 48 h, read-out: Activity
A549 = experiment: Growth inhibition of human A549/ATCC cells assessed as cell growth at 10^-7 M incubated for 48 hrs by sulforhodamine B assay relative to control; conditions: A549, 48 h, read-out: Activity
OVCAR-8 [3] = experiment: Growth inhibition of human OVCAR8 cells assessed as cell growth at 10^-5 M incubated for 48 hrs by sulforhodamine B assay relative to control; conditions: OVCAR-8, 48 h, read-out: Activity
LOX IMVI = experiment: Growth inhibition of human LOXIMVI cells assessed as cell growth at 10^-6 M incubated for 48 hrs by sulforhodamine B assay relative to control; conditions: read-out: Activity
NCI-H322M [4] = experiment: Growth inhibition of human NCI-H322M cells assessed as cell growth at 10^-7 M incubated for 48 hrs by sulforhodamine B assay relative to control; conditions: read-out: Activity
BT-549 = experiment: Growth inhibition of human BT549 cells assessed as cell growth at 10^-6 M incubated for 48 hrs by sulforhodamine B assay relative to control; conditions: BT-549, 48 h, read-out: Activity
SF-539 = experiment: Growth inhibition of human SF539 cells assessed as cell growth at 10^-4 M incubated for 48 hrs by sulforhodamine B assay relative to control; conditions: SF-539, 48 h, read-out: Activity
RPMI-8226 [5] = experiment: Growth inhibition of human RPMI8226 cells assessed as cell growth at 10^-4 M incubated for 48 hrs by sulforhodamine B assay relative to control; conditions: RPMI-8226, 48 h, read-out: Activity
RXF 393 = experiment: Growth inhibition of human RXF393 cells assessed as cell growth at 10^-8 M incubated for 48 hrs by sulforhodamine B assay relative to control; conditions: RXF 393, 48 h, read-out: Activity
NCI/ADR-RES = experiment: Growth inhibition of human NCI/ADR-RES cells assessed as cell growth at 10^-5 M incubated for 48 hrs by sulforhodamine B assay relative to control; conditions: read-out: Activity
HCC 2998 = experiment: Growth inhibition of human HCC2998 cells assessed as cell growth at 10^-6 M incubated for 48 hrs by sulforhodamine B assay relative to control; conditions: HCC 2998, 48 h, read-out: Activity
EKVX [6] = experiment: Growth inhibition of human EKVX cells assessed as cell growth at 10^-7 M incubated for 48 hrs by sulforhodamine B assay relative to control; conditions: read-out: Activity
CAKI-1 [7] = experiment: Growth inhibition of human Caki1 cells assessed as cell growth at 10^-7 M incubated for 48 hrs by sulforhodamine B assay relative to control; conditions: CAKI-1, 48 h, read-out: Activity
SK-MEL-28 = experiment: Growth inhibition of human SK-MEL-28 cells assessed as cell growth at 10^-4 M incubated for 48 hrs by sulforhodamine B assay relative to control; conditions: SK-MEL-28, 48 h, read-out: Activity
NCI-H322M [8] = experiment: Growth inhibition of human NCI-H322M cells assessed as cell growth at 10^-5 M incubated for 48 hrs by sulforhodamine B assay relative to control; conditions: read-out: Activity
OVCAR-5 = experiment: Growth inhibition of human OVCAR5 cells assessed as cell growth at 10^-4 M incubated for 48 hrs by sulforhodamine B assay relative to control; conditions: OVCAR-5, 48 h, read-out: Activity
COLO 205 = experiment: Growth inhibition of human COLO205 cells assessed as cell growth at 10^-4 M incubated for 48 hrs by sulforhodamine B assay relative to control; conditions: COLO 205, 48 h, read-out: Activity
IGROV-1 = experiment: Growth inhibition of human IGROV1 cells assessed as cell growth at 10^-6 M incubated for 48 hrs by sulforhodamine B assay relative to control; conditions: IGROV-1, 48 h, read-out: Activity
A498 = experiment: Growth inhibition of human A498 cells assessed as cell growth at 10^-5 M incubated for 48 hrs by sulforhodamine B assay relative to control; conditions: A498, 48 h, read-out: Activity
SK-MEL-2 = experiment: Growth inhibition of human SK-MEL-2 cells assessed as cell growth at 10^-7 M incubated for 48 hrs by sulforhodamine B assay relative to control; conditions: SK-MEL-2, 48 h, read-out: Activity
ACHN = experiment: Growth inhibition of human ACHN cells assessed as cell growth at 10^-4 M incubated for 48 hrs by sulforhodamine B assay relative to control; conditions: read-out: Activity
MDA-MB-435 = experiment: Growth inhibition of human MDA-MB-435 cells assessed as cell growth at 10^-6 M incubated for 48 hrs by sulforhodamine B assay relative to control; conditions: MDA-MB-435, 48 h, read-out: Activity
KM12 = experiment: Growth inhibition of human KM12 cells assessed as cell growth at 10^-6 M incubated for 48 hrs by sulforhodamine B assay relative to control; conditions: KM12, 48 h, read-out: Activity
EKVX [9] = experiment: Growth inhibition of human EKVX cells assessed as cell growth at 10^-6 M incubated for 48 hrs by sulforhodamine B assay relative to control; conditions: read-out: Activity
NCI-H522 = experiment: Growth inhibition of human NCI-H522 cells assessed as cell growth at 10^-7 M incubated for 48 hrs by sulforhodamine B assay relative to control; conditions: NCI-H522, 48 h, read-out: Activity
SNB-75 = experiment: Growth inhibition of human SNB75 cells assessed as cell growth at 10^-4 M incubated for 48 hrs by sulforhodamine B assay relative to control; conditions: SNB-75, 48 h, read-out: Activity
RPMI-8226 [10] = experiment: Growth inhibition of human RPMI8226 cells assessed as cell growth at 10^-6 M incubated for 48 hrs by sulforhodamine B assay relative to control; conditions: RPMI-8226, 48 h, read-out: Activity
Hs-578T = experiment: Growth inhibition of human Hs 578T cells assessed as cell growth at 10^-7 M incubated for 48 hrs by sulforhodamine B assay relative to control; conditions: read-out: Activity

CCCCOc1nc2ccccc2cc1C1CNC(=O)c2ccccc2N1 (stereo not drawn) gave a growth at 1 µM (SW-620) of 66%, a growth at 10 µM (NCI-H226) of 7% and a growth at 0.1 µM (SNB-19) of 95%. The growth at 0.1 µM (OVCAR-8 [1]) was 98%, the growth at 0.01 µM (CAKI-1 [2]) was 83% and the growth at 100 µM (MDA-MB-231) was -53%. For the same compound, the growth at 0.1 µM (A549) was 100%, the growth at 10 µM (OVCAR-8 [3]) was 12% and the growth at 1 µM (LOX IMVI) was 80%. For the same compound, the growth at 0.1 µM (NCI-H322M [4]) was 95%, the growth at 1 µM (BT-549) was 84% and the growth at 100 µM (SF-539) was -70%. For the same compound, the growth at 100 µM (RPMI-8226 [5]) was -14%, the growth at 0.01 µM (RXF 393) was 100% and the growth at 10 µM (NCI/ADR-RES) was -15%. It also gave a growth at 1 µM (HCC 2998) of 93%, a growth at 0.1 µM (EKVX [6]) of 97% and a growth at 0.1 µM (CAKI-1 [7]) of 86%. The growth at 100 µM (SK-MEL-28) was -57%, the growth at 10 µM (NCI-H322M [8]) was 31% and the growth at 100 µM (OVCAR-5) was -24%. For the same compound, the growth at 100 µM (COLO 205) was -62%, the growth at 1 µM (IGROV-1) was 86% and the growth at 10 µM (A498) was -21%. The growth at 0.1 µM (SK-MEL-2) was 99%, the growth at 100 µM (ACHN) was -71% and the growth at 1 µM (MDA-MB-435) was 8%. For the same compound, the growth at 1 µM (KM12) was 85%, the growth at 1 µM (EKVX [9]) was 89% and the growth at 0.1 µM (NCI-H522) was 107%. It also gave a growth at 100 µM (SNB-75) of -79%, a growth at 1 µM (RPMI-8226 [10]) of 84% and a growth at 0.1 µM (Hs-578T) of 97%.

Source: ChEMBL document CHEMBL4138146, “A Schmidt rearrangement-mediated synthesis of novel tetrahydro-benzo[1,4]diazepin-5-ones as potential anticancer and antiprotozoal agents” (Eur J Med Chem, 2017)
